Laboratory results reported in patent US7105512B2, “Ophthalmic aqueous pharmaceutical preparation” (Wakamoto Pharmaceutical Co., Ltd., priority 1999, dated 2006).
Values joined by “and” are separate entries in the source; they are usually repeats but may differ in a detail not shown here. Equal entries are not always repeated. Structures can show the parent of a compound that is named as a salt.

What was measured:
[1] = Comparison of solubility in water of meloxicam salts by UV analysis
[2] = Solubility of meloxicam in water near the neutral pH region; type: physicochemical; conditions: at 25° C.
[3] = pH of the aqueous solution at the concentration of the same line, below saturation
[4] = pH of the saturated aqueous solution (SAS)

| pH [1, 3] | pH [1, 4] | solubility of meloxicam in water, saturated concentration [2] | SMILES |
| --- | --- | --- | --- |
| 8.57 and 8.64 and 8.73 | 9.02 | – | CNC[C@H](O)[C@@H](O)[C@H](O)[C@H](O)CO.Cc1cnc(NC(=O)C2=C(O)c3ccccc3S(=O)(=O)N2C)s1 [Meglumine Salt, meglumine salt of meloxicam] |
| – | 8.06 | – | Cc1cnc(NC(=O)C2=C([O-])c3ccccc3S(=O)(=O)N2C)s1.[Na+] [Sodium Salt, Sodium salt of meloxicam] |
| 7.52 and 7.71 | 7.93 | – | Cc1cnc(NC(=O)C2=C(O)c3ccccc3S(=O)(=O)N2C)s1 [Trometamol Salt, trometamol salt of meloxicam] |
| – | – | about 0.2 mg/100 mL | Cc1cnc(NC(=O)C2=C(O)c3ccccc3S(=O)(=O)N2C)s1 [meloxicam] |
